Earlier results, collected in patent publication US10638990B2, “Sunscreen compositions with improved water resistance of UVA sunscreen active agents” (Edgewell Personal Care Brands, LLC, priority 2015, dated 2020).

Conditions: calculated partition coefficient between octanol and water

| Compound | Log P @25° C. |
| --- | --- |
| CC1CCC(C(C)C)C(OC(=O)c2ccccc2N)C1 (stereo not drawn) [Menthyl anthranilate, Menthyl-O-aminobenzoate] | 5.05 |
| CCOCCOC(=O)/C=C/c1ccc(OC)cc1 [Cinoxate, Ethoxyethyl methoxy cinnamate] | 2.55 |
| CCOC(=O)c1ccc(N(CC(C)O)CC(C)O)cc1 (stereo not drawn) [Ethyl dihydroxypropyl PABA, Ethyl-4-bis(2-hydroxypropyl-aminobenzoate)] | 2.84 |
